# Source: patent publication US20230057071A1 (NOVARTIS AG, priority 2019, published 2023)
# Experiments:
# [1] = system: IL-1 signaling; conditions: mouse model of disease; cited from earlier work
# [2] = system: THP-1 cells engineered to overexpress TIM-3; assay: T cell-mediated killing of TIM-3-overexpressing versus parental THP-1 cells (co-culture, flow cytometry); type: cell-based, human; conditions: 25 μg/ml; 3 days co-culture; anti-CD3/anti-CD28 beads
# Method: The ratio between TIM-3-expressing THP-1 cells and parental THP-1 cells (“fold” in y-axis of graph) was calculated and normalized to conditions without anti-CD3/anti-CD28 bead stimulation. The x-axis of the graph denotes the stimulation amount as number of beads per cell. Data represents one of two independent experiments.
# THP-1 cells express TIM-3 mRNA but low to no TIM-3 protein on the cell surface. […] TIM-3 Flag-tagged THP-1 cells were labeled with 2 μM CFSE (Thermo Fisher Scientific), and THP-1 parental cells were labeled with 2 μM CTV (Thermo Fisher Scientific), according to manufacturer instructions. Co-culture assays were performed in 96-well round-bottom plates. […] Cells were then detected and counted by flow cytometry. The ratio between TIM-3-expressing THP-1 cells and parental THP-1 cells (“fold” in y-axis of graph) was calculated and normalized to conditions without anti-CD3/anti-CD28 bead stimulation. […]
# [3] = target: T1, TIM-3/Galectin-9 interaction (Homo sapiens, UniProt Q8TDQ0); assay: Plate-based (MesoScale) competition assay of the TIM-3/Galectin-9 interaction; type: binding; conditions: serial dilutions of antibody; labeled Galectin-9 100 nM
# T1 construct: purchased R&D Systems
# Method: FIG. 1 is a graph depicting the impact of MBG453 on the interaction between TIM3 and galectin-9. Competition was assessed as a measure of the ability of the antibody to block Gal9-SULFOTag signal to TIM-3 receptor, which is shown on the Y-axis. Concentration of the antibody is shown on the X-axis.
# TIM-3 fusion protein (R&D Systems) was coated on a standard MesoScale 96 well plate (Meso Scale Discovery) at 2 μg/ml in PBS (Phosphate Buffered Saline) and incubated for six hours at room temperature. The plate was washed three times with PBST (PBS buffer containing 0.05% Tween-20) and blocked with PBS containing 5% Probumin (Millipore) overnight at 4° C. After incubation, the plate was washed three times with PBST and unlabeled antibody (F38-2E2 (BioLegend); MBG453; MBG453 F(ab′)2; MBG453 F(ab); or control recombinant human Galectin-9 protein) diluted in Assay Diluent (2% Probumin, 0.1% Tween-20, 0.1% Triton X-100 (Sigma) with 10% StabilGuard (SurModics)), was added in serial dilutions to the plate and incubated for one hour on an orbital shaker at room temperature. […] The plate was again washed three times with PBST, and Read Buffer T (1×) was added to the plate. The plate was read on MA600 Imager, and competition was assessed as a measure of the ability of the antibody to block Gal9-SULFOTag signal to TIM-3 receptor.
# [4] = system: rodent and cynomolgus monkey TGF-β; assay: Species cross-reactivity of NIS793; type: binding
# [5] = cited from earlier work
# [6] = system: AML PDX model HAMLX5343 (KRASG12D, WT1, PTPN11); type: in vivo
# Method: Initial group size: 4 animals. […] All final data were recorded on day 56.
# (§1) The activity of MBG453 with and without decitabine was evaluated in two AML patient-derived xenograft (PDX) models, HAMLX21432 and HAMLX5343. Decitabine (TCI America) was formulated in dextrose 5% in water (D5W) freshly prior to each dose and administered daily for 5 days. It was administered at 10 mL/kg intraperitoneal (i.p.), for a final dose […]. MBG453 was formulated to a final concentration of 1 mg/mL in PBS. It was administered weekly at a volume of 10 mL/kg, i.p., for a final dose of 10 mg/kg, with treatment initiating on dosing day 6, 24 hours after the final dose of decitabine.
# [7] = system: AML PDX model HAMLX21432 (IDH1R132H); type: in vivo
# Method: MBG453 was administered i.p. at 10 mg/kg, once weekly (starting at day 6 of dosing) either as a single agent or in combination with decitabine i.p. at 1 mg/kg, once daily for a total of 5 doses (from initiation of dosing). Initial group size: 4 animals. […] All final data were recorded on day 56. Leukemic burden was measured as a percentage of human CD45+ cells in peripheral blood by FACS analysis.
# as §1
# Treatments were initiated on the day of randomization and continued for 21 days.
# [8] = single agent, 1 mg/kg i.p. daily x5
molecule,measurement,setting,value
anakinra: recombinant IL-1 receptor antagonist (IL-1Ra),BM MSC frequency,[1],increased
same,platelet counts,[1],reduced
MBG453 F(ab): F(ab) fragment of MBG453,T cell-mediated killing of TIM-3-overexpressing THP-1 cells relative to parental THP-1 cells,[2],not
same,block of the interaction between TIM-3 and Galectin-9 (Gal9-SULFOTag signal to TIM-3),[3],partially blocked
MBG453 F(ab′)2: F(ab′)2 fragment of MBG453,block of the interaction between TIM-3 and Galectin-9 (Gal9-SULFOTag signal to TIM-3),[3],partially blocked
NIS793: fully human IgG2 monoclonal antibody that specifically binds and neutralizes TGF-beta 1 and 2 ligands,cross-reactivity with rodent and cynomolgus monkey TGF-β,[4],cross-reacts
"Nc1ncn([C@H]2C[C@H](O)[C@@H](CO)O2)c(=O)n1 [decitabine, 4-amino-1-(2-deoxy-beta-D-erythro-pentofuranosyl)-1,3,5-triazin-2(1H)-one]",response,[5]; 21 patients with myelofibrosis,7 of 19
same,Grade 3/4 neutropenia,[5]; myelofibrosis cohort,95 % of patients
same,Grade 3/4 thrombocytopenia,[5]; myelofibrosis cohort,52 % of patients
same,"leukemic burden, hCD45+ cells","[6]; group average, day 53 post-implant or day 21 post-treatment start",1%
same,anti-tumor activity,[6]; [8],significant anti-tumor activity
same,"leukemic burden, hCD45+ cells in circulation",[7]; day 56 post-implantation,66%
same,"leukemic burden, hCD45+ cells in peripheral blood","[7]; group average, day 49 post-implant or day 14 post-treatment start, decitabine 1 mg/kg i.p. daily x5, MBG453 10 mg/kg i.p. weekly",51%
same,anti-tumor activity,[7]; [8],moderate anti-tumor activity
